Measured values reported in ChEMBL document CHEMBL5465560, “Selectivity Literature for EUbOPEN Chemogenomic Library” (2024).
Values belong to the compound of their own block, whether it stands above or below them.

Experiments:
[1] = biological target: T1, Mitogen-activated protein kinase kinase kinase 7 (Homo sapiens) (UniProt O43318); assay: Selectivity interaction (Kinase panel (literature)) EUB0001199aCl MAP3K7; details: at 1 µM
T1 sequence (whole entry): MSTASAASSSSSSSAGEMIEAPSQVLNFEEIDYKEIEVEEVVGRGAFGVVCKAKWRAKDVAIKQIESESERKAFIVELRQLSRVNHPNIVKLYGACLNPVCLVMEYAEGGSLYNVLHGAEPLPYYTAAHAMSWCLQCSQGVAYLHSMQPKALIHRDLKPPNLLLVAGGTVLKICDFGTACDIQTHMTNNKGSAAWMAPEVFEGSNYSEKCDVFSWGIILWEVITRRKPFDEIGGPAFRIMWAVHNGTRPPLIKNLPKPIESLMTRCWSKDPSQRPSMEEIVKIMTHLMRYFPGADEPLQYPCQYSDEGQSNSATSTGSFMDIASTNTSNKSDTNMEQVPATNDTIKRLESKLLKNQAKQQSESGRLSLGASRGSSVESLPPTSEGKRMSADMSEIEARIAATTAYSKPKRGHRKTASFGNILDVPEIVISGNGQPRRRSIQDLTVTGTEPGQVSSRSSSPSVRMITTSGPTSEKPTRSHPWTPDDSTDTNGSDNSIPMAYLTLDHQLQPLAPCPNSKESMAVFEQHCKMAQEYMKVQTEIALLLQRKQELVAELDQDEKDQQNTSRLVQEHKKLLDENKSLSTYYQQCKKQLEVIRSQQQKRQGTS

[2] = biological target: Maternal embryonic leucine zipper kinase (Homo sapiens) (UniProt Q14680); assay: Selectivity interaction (Upstate Kinase Profiler service (Millipore)) EUB0000056c MELK; details: at 1 µM
[3] = biological target: T1, Mitogen-activated protein kinase kinase kinase 7 (Homo sapiens); assay: Selectivity interaction (ProQinase) EUB0000171b MAP3K7
[4] = biological target: Ribosomal protein S6 kinase alpha-4 (Homo sapiens) (UniProt O75676); assay: Selectivity interaction (KinomeScan (DiscoverX)) EUB0000595a RPS6KA4; details: at 10 µM
[5] = biological target: Interleukin-1 receptor-associated kinase 1 (Homo sapiens) (UniProt P51617); assay: Selectivity interaction (KinomeScan (DiscoverX)) EUB0000595a IRAK1; details: at 10 µM
[6] = biological target: T2, Serine/threonine-protein kinase ULK1 (Homo sapiens) (UniProt O75385); assay: Selectivity interaction (KinomeScan (DiscoverX)) EUB0000618a ULK1; details: at 10 µM
T2 sequence (whole entry): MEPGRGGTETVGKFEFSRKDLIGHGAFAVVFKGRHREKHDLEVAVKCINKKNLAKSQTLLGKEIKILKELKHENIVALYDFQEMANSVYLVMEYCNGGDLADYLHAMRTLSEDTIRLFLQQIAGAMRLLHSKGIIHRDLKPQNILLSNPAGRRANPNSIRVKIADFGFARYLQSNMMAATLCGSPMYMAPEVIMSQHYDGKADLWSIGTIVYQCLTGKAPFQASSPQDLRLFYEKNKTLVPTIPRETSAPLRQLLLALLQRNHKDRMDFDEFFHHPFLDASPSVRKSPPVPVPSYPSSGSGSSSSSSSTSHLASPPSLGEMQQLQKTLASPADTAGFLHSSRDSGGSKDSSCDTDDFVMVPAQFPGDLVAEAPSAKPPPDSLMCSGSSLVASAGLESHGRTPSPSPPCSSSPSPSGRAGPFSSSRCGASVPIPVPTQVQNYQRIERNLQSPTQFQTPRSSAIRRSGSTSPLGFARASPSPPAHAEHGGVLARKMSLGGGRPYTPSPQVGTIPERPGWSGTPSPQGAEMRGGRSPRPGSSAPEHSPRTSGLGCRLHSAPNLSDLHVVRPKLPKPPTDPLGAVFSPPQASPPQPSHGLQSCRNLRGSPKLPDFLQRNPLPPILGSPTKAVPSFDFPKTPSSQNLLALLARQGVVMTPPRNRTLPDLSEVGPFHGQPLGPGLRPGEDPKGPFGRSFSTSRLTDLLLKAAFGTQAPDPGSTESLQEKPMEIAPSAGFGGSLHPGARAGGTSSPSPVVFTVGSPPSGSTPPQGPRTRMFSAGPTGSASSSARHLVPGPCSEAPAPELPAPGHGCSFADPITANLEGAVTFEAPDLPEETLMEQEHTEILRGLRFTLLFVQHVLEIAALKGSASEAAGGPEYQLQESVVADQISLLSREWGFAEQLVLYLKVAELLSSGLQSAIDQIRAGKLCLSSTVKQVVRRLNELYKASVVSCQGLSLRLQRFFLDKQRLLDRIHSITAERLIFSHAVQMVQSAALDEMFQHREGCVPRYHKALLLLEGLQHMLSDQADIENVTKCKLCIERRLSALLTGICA

[7] = biological target: T3, Mitogen-activated protein kinase kinase kinase 2 (Homo sapiens) (UniProt Q9Y2U5); assay: Selectivity interaction (ActivX KiNativ screen (ex vivo kinase selectivity in human PBMCs)) EUB0001619a MAP3K2; type: cell-based; details: PBMC, at 1 µM
T3 sequence (whole entry): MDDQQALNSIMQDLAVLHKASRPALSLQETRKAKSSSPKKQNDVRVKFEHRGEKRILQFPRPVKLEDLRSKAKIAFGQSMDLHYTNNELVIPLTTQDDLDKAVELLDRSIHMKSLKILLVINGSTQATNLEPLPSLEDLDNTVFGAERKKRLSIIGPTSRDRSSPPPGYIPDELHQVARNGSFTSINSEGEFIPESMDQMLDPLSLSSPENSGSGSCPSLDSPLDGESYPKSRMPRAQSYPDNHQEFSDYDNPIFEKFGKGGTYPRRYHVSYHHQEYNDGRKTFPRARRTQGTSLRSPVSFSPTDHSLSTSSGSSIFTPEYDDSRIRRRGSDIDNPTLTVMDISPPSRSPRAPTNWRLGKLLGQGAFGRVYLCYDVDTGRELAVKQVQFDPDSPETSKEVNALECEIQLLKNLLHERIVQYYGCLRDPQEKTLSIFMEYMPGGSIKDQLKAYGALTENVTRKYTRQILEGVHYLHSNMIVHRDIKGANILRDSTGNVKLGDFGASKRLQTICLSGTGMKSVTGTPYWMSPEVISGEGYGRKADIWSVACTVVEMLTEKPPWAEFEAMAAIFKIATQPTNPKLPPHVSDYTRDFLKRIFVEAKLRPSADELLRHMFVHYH

Sequence of Interleukin-1 receptor-associated kinase 1 (Homo sapiens) (P51617 whole entry, looked up): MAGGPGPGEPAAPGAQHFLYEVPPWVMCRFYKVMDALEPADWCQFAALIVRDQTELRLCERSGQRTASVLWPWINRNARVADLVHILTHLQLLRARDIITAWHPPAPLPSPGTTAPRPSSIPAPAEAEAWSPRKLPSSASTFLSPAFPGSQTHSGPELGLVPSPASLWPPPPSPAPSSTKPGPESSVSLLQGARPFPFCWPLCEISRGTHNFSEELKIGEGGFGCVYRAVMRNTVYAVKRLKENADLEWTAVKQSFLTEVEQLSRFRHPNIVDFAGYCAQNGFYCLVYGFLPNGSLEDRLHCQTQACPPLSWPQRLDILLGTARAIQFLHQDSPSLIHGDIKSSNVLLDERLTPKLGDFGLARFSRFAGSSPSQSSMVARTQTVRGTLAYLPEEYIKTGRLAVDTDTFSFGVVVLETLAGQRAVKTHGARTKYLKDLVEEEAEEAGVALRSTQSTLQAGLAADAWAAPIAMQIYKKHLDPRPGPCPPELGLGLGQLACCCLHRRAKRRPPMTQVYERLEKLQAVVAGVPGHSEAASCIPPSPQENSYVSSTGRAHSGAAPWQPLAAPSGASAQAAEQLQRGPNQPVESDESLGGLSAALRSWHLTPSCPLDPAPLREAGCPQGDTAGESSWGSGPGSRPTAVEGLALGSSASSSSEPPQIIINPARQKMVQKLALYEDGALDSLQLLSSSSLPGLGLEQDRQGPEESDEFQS
Sequence of Ribosomal protein S6 kinase alpha-4 (Homo sapiens) (O75676 whole entry, looked up): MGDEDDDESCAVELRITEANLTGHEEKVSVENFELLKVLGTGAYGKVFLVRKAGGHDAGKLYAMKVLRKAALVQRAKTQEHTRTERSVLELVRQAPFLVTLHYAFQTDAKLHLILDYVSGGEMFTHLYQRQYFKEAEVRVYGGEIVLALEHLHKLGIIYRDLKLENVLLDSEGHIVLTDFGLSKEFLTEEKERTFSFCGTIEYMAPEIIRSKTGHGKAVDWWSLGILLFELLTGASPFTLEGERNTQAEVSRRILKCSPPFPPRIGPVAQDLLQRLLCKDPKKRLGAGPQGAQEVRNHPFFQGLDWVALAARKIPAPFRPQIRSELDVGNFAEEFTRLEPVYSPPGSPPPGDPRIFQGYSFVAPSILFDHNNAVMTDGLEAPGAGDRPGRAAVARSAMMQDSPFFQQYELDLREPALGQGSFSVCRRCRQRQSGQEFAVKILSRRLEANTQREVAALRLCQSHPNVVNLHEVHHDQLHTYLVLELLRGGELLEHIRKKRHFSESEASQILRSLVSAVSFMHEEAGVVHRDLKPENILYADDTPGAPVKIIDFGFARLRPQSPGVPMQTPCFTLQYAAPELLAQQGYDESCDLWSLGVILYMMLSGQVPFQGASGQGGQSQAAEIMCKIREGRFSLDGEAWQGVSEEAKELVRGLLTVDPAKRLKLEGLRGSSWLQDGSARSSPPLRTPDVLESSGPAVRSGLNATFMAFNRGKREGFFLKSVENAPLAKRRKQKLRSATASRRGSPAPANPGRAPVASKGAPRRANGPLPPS
Sequence of Maternal embryonic leucine zipper kinase (Homo sapiens) (Q14680 whole entry, looked up): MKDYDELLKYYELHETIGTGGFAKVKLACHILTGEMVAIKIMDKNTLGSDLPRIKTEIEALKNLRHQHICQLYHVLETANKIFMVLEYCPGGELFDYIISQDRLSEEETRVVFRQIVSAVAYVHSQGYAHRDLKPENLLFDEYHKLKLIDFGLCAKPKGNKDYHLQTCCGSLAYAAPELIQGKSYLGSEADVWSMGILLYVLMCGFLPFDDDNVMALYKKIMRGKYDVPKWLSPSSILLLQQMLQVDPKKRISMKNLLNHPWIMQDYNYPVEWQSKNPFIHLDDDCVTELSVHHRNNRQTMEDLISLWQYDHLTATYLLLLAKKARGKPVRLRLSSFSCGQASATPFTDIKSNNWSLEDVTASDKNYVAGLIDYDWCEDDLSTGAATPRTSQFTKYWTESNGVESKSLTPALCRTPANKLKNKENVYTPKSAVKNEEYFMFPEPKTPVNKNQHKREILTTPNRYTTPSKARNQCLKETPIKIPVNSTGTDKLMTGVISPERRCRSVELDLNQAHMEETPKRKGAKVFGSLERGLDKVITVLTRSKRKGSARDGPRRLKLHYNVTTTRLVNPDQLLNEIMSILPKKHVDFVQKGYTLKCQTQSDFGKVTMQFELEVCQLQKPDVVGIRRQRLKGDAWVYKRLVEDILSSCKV

Structure (SMILES): COCC(=O)NC/C=C/c1ccc2ncnc(Nc3ccc(Oc4ccc(C)nc4)c(C)c3)c2c1 [CP-724714]
% of control [4]: 97% | % of control [5]: 100%

Structure (SMILES): O[C@H]1CC[C@H](Nc2ncc3nc(Nc4c(F)cc(F)cc4F)n([C@H]4CCOC4)c3n2)CC1
% of control [6]: 84%

Structure (SMILES): N#Cc1cccc(-c2c[nH]c3ncnc(N4CCOCC4)c23)c1
% of inhibition [7]: 15%

Second part, the compound after the results:

% of inhibition [1]: 3%
Structure (SMILES): CN1Cc2nccc(-c3cn(C)nc3-c3ccc(F)cc3)c2C1=O

% of inhibition [2]: 10%
Structure (SMILES): Cc1ccc(-c2ccc3c(ccc4sc5c(c43)NC[C@@H](C)NC5=O)n2)cn1

% of control ([3]; at 1 µM): 101% | % of control ([3]; at 5 µM): 77%
Structure (SMILES): C=CC(=O)Nc1cccc(C(=O)Nc2ccc(Nc3cc(-c4[nH]c(SC)nc4C)ccn3)cc2)c1
